In one data set the test system is Ad2.1 pre-mRNA splicing. In words: In vitro splicing (IVS) RT-qPCR, Ad2.1 pre-mRNA, HeLa nuclear extract. It is filed as biochemical. The note with it: payload of the ADC; read-out: qPCR-IVS-AT S Gmean IC50 (nm) Ad2.1 HELA.2. A general note: In qPCR the cycle at which signal appears reflects the starting amount.
For a further data set, the system named is MOLP8 cells. In words: Cell viability, CD138-expressing MOLP8. The class given is cell-based. The note with it: unconjugated payload of the ADC.
The next data set has as its system Ad2.2 pre-mRNA splicing. In words: In vitro splicing (IVS) RT-qPCR, Ad2.2 pre-mRNA, HeLa nuclear extract. The class given is biochemical. The note with it: payload of the ADC; read-out: qPCR-IVS-AT S GMean IC50 (nM) Ad2.2 HELA.2. As for the experimental part: To evaluate payload activity in a cell-free system, an in vitro splicing assay was performed. The payloads were incubated with nuclear extracts and pre-mRNA substrate minigenes.
HeLa nuclear extract preparation: HeLa S3 cell pellets were resuspended in hypotonic buffer (10 mM HEPES pH 7.9, 1.5 mM MgCl2, 10 mM KCl, 0.2 mM PMSF, 0.5 mM DTT) and the suspension was brought up to a total of 5 packed cell volume (PCV). After centrifugation, the supernatant was discarded, and the cells were brought up to 3 PCV with hypotonic buffer and incubated on ice for 10 min. Cells were lysed using a dounce homogenizer and then centrifuged. […]. The nuclei were gently mixed for 30 min before centrifuging. The supernatant (nuclear extract) was then dialyzed into storage buffer (20 mM HEPES pH 7.9, 100 mM KCl, 0.2 mM EDTA, 20% glycerol, 0.2 mM PMSF, 0.5 mM DTT). Protein concentration was determined using NanoDrop 8000 UV-Vis spectrophotometer (ThermoFisher Scientific).
IVS: All Ad2-derived sequences (Pellizzoni et al. (1998) Cell 95(5):615-24) were cloned into pcDNA3.1(+) vector (Promega) using 5′ EcoRI and 3′ Xbal restriction sites. The plasmids were linearized using Xbal and used as DNA templates in in vitro transcription reactions. The FtzΔi intron-less plasmid (Luo and Reed (1999) 96(26):14937-42) was linearized using EcoRI. All RNAs were in vitro transcribed and then purified using MEGAScript T7 (Invitrogen) and MegaClear (Invitrogen) kits, respectively. For splicing reactions using Ad2 variant pre-mRNAs, 1 μL reactions were prepared using 8 μg nuclear extracts prepared from HeLa S3, 2 ng pre-mRNA, 0.2 ng FTZΔi, and varying concentrations of compounds or DMSO. After a 15 min pre-incubation at 30° C., 1 μL splicing activation buffer (0.5 mM ATP, 20 mM creatine phosphate, 1.6 mM MgCl2) was added, and the reactions were incubated for 90 min at 30° C. The reactions were then quenched with 13 μL DMSO, and 25 nL was used for RT-qPCR. RT-qPCR reactions were prepared using TaqMan RNA-to-CT 1-step kit (Life Technologies), RNA from splicing reactions, Ad2 (forward: […]; reverse: […]; probe: […]) and Ftz (forward: […]; reverse: […]; probe: […]) mRNA primer-probe sets. Prism 7 (Graphpad) was used for non-linear regression curve fitting of the formed spliced product and normalized to the control (DMSO) sample. […] In the presence of payload, a decrease in the amount of spliced product was observed.

The subject of the next data set is N87 cells. Briefly: Cell viability CellTiter-Glo, N87. It is filed as cell-based, human. Conditions: unconjugated payload of the ADC. For orientation: ATP-based viability assays read luminescence as a measure of living cells.
For another data set, the system named is HCC1954 cells. Briefly: Cell viability CellTiter-Glo, HCC1954. It is filed as cell-based. Conditions: unconjugated payload of the ADC.
A short description of data set [1]: Caco-2 permeability of ADC payload. The class given is in vitro ADME. Conditions: human, Caco-2; payload, B-A/A-B; read-out: Eflux ratio. As for the experimental part: (§1) Integrity of cell monolayer was confirmed by TEER (transepithelial electrical resistance) and Lucifer yellow. Payloads were spiked in duplicate at 10 μM, separately, on both sides of the cell monolayer. Permeability rates from the apical to basolateral (A-B) direction and the basolateral to apical (B-A) direction were determined by sampling aliquots from both chambers immediately after treatment (t=0) and following incubation for 2 hours. Samples were protein precipitated with organic solvent containing internal standard and analyzed by LC-MS/MS (SCIEX; API 5500). The area ratio responses of payload/internal standard over time in both directions were used to generate permeability (cm/see) values. Efflux ratio was calculated by dividing B-A/A-B. Control compounds for low and high permeability and efflux behaved as expected.
In general terms: Passage across Caco-2 layers is used to estimate intestinal permeability.

The subject of a further data set is Caco-2 cells. Briefly: Caco-2 permeability of ADC payload. The class given is in vitro ADME. Conditions: for Permeability Caco-2 A-B (10e-6 cm/s): Table 26, corresponding payload. As for the experimental part:
as §1

A further data set relates to MCF7 cells. Briefly: Cell viability CellTiter-Glo, HER2-negative MCF7. The note with it: unconjugated payload of the ADC.
The next data set concerns the target T1, SF3b complex (Homo sapiens, UniProt O75533+Q7RTV0).
T1 construct: The beads were suspended and added to the prepared nuclear extracts
Briefly: SF3B1 binding / scintillation proximity assay (SPA). The note with it: payload of the ADC; read-out: SPA-AT S GMean IC50 (nM) SF381 (WT) HELA.2.

Data set [2] can be described thus: Chemical stability of ADC payload, pH 5.5 buffer. The note with it: for pH 5.5 Stability (t1/2, 37C): Table 26, corresponding payload, pH 5.5, 37C.
For a further data set, the system named is THP1.1. In words: Payload cell potency and lethality CTGlo 72 h, THP1.1. It is filed as cell-based. The note with it: payload.
The conditions of data set [3]: in vivo; cited from earlier work.
The next data set concerns PC3 cells. In words: Cell viability, EPHA2-expressing PC3. The class given is cell-based. Conditions: corresponding payload alone.
In data set [4] the test system is TAOK1 (neojunction transcript). Briefly: In vivo PD RT-qPCR in NCI-N87 tumors, TAOK1. The arrangement: species or system mouse. Conditions: 10 mg/kg IV single dose.
In data set [5] the test system is FBXW5 (mature mRNA transcript). In words: In vivo PD RT-qPCR in NCI-N87 tumors, FBXW5. The arrangement: species or system mouse. Conditions: 10 mg/kg IV single dose.

For orientation: IC50 means the concentration needed to halve the response being measured.

Where “and” joins values, the source holds several entries; their conditions need not be identical. Identical values can stand only once.

With `CC[C@H](O)[C@@H](C)[C@H]1O[C@@H]1C[C@@](C)(O)/C=C/C=C(\C)[C@H]1OC(=O)C[C@H](O)CC[C@@](C)(OC)[C@@H](OC(=O)N2CCN(CCCC(=O)O)CC2)/C=C/[C@@H]1C` [D25], the 50% inhibitory concentration (IC50) in the data set on Ad2.1 pre-mRNA splicing is 244 nM; in the data set with Ad2.2 pre-mRNA splicing, 50.9 nM; on SF3b complex, 14.6 nM. Moreover, the “LD50 (nM) (payload)” value in the data set with MOLP8 cells was above 400 nM. Further, the “Rmin (%) (payload)” value in the data set with MOLP8 cells stood at 5.94%. Moreover, the “Payload LD50” value in the data set with N87 cells, in the data set on HCC1954 cells and with MCF7 cells was above 200 nM in each case. Also, the “Payload Rmin (%)” value turned out to be 26.882% in the data set on HCC1954 cells and 65.639% in the data set with MCF7 cells. The efflux ratio at 2 h, 10 μM in [1] was determined as 2.55. Also, the “Permeability Caco-2 A-B (10e-6 cm/s)” value with Caco-2 cells is 0.14 10e-6 cm/s. In the data set with Caco-2 cells (payload), the “permeability (in words)” value was “poorly permeable”. Also, in [2], the “pH 5.5 Stability (t1/2, 37C)” value was 3.4. For the same compound, in the data set with THP1.1, the “CTGlo-AT S GMean LD50 (nM) 72 h THP1.1” value is 2076.811 nM.
Regarding tremelimumab, the plasma half-life entry in data set [3] is “approximately 22 days”.
In the case of `COc1cc2cc(c1Cl)N(C)C(=O)C[C@H](OC(=O)[C@H](C)N(C)C(=O)CCS)[C@]1(C)O[C@H]1[C@H](C)[C@@H]1C[C@@](O)(NC(=O)O1)[C@H](OC)/C=C/C=C(\C)C2` [DM1, reference compound], the IC50 with Ad2.1 pre-mRNA splicing is above 25000 nM; with Ad2.2 pre-mRNA splicing, above 25000 nM; at SF3b complex it was above 1200 nM. The “Permeability Mean Caco-2 A-B Perm (10e-6 cm/s)” value in the data set with Caco-2 cells (payload, 10 μM, 2 hours, apical to basolateral) is on record as 0.38 10e-6 cm/s. The “Permeability Mean Caco-2 B-A Perm (10e-Gcm/s)” value in the data set with Caco-2 cells (payload, 10 μM, 2 hours, basolateral to apical) is 28.6 10e-Gcm/s. Further, in data set [2] (payload, 20 μM, pH 5.5 buffer, 37° C.), the “Stability Mean Stability t1/2 pH5.5 (d)” value is given as 1.3 d. Further, the “CTGlo-AT S GMean LD50 (nM) 72 h THP1.1” value in the data set with THP1.1 worked out at 3.287 nM. Moreover, in the data set on THP1.1, the “CTGlo-AT S Mean MinResponse % 72 h THP1.1” value is −93.785%.
Take `CC[C@H](O)[C@@H](C)[C@H]1O[C@@H]1C[C@@](C)(O)/C=C/C=C(\C)[C@H]1OC(=O)C[C@H](O)CC[C@@](C)(OC)[C@@H](OC(=O)N2CCN(C)CC2)/C=C/[C@@H]1C` [D2, (2S,3S,6S,7R,10R,E)-10-hydroxy-2-((R,2E,4E)-6-hydroxy-7-((2R,3R)-3-((2R,3S)-3-hydroxypentan-2-yl)oxiran-2-yl)-6-methylhepta-2,4-dien-2-yl)-7-methoxy-3,7-dimethyl-12-oxooxacyclododec-4-en-6-yl 4-methylpiperazine-1-carboxylate]: the IC50 in the data set on Ad2.1 pre-mRNA splicing was 19.1 nM and 19.3 nM; in the data set on Ad2.2 pre-mRNA splicing it was 15.3 nM. The “Payload LD50” value is above 400 nM in the data set with PC3 cells, above 200 nM in the data set on N87 cells, 2.758 nM in the data set on HCC1954 cells and 30.318 nM in the data set with MCF7 cells. The “LD50 (nM) (payload)” value with MOLP8 cells is reported as 5.035 nM. For the same compound, in the data set on MOLP8 cells, the “Rmin (%) (payload)” value is on record as −100.198%. The “Payload Rmin (%)” value in the data set on HCC1954 cells is recorded as −78.732%; in the data set with MCF7 cells, −66.915%. Also, the efflux ratio at 2 h, 10 μM in data set [1] came out at 22.8. For the same compound, the “Permeability Caco-2 A-B (10e-6 cm/s)” value in the data set on Caco-2 cells is on record as 0.6 10e-6 cm/s. Further, the Eflux ratio in the data set on Caco-2 cells (payload, B-A/A-B) worked out at 22.756. Besides, the “pH 5.5 Stability (t1/2, 37C)” value in data set [2] is recorded as 4. Further, the “CTGlo-AT S GMean LD50 (nM) 72 h THP1.1” value with THP1.1 was 11.708 nM.
Consider ipilimumab, for which the plasma half-life in data set [3] was 12 to 14 days.
Take `CC[C@H](O)[C@@H](C)C1OC1C[C@@](C)(O)/C=C/C=C(\C)[C@H]1OC(=O)C[C@H](O)CC[C@@](C)(OC)[C@@H](OC(=O)N2CCN(CCN3C(=O)C=CC3=O)CC2)/C=C/[C@@H]1C` (stereo in doubt) [ADL14-D1, (2S,3S,6S,7R,10R,E)-10-hydroxy-2-((R,2E,4E)-6-hydroxy-7-((2S,3S)-3-((2R,3S)-3-hydroxypentan-2-yl)oxiran-2-yl)-6-methylhepta-2,4-dien-2-yl)-7-methoxy-3,7-dimethyl-12-oxooxacyclododec-4-en-6-yl 4-(2-(2,5-dioxo-2,5-dihydro-1 H-pyrrol-1-yl)ethyl)piperazine-1-carboxylate]: the “TAOK1 neojunction transcript in tumors” value in data set [4] is given as “did not exhibit statistically significant changes”. The “FBXW5 mature mRNA transcript in tumors” value in data set [5] is “did not exhibit statistically significant changes”.

Values taken from patent US12172986B2, “Splicing modulator antibody-drug conjugates and methods of use” (EISAI R&D MANAGEMENT CO., LTD., priority 2018, dated 2024).
